{"source": "patent US4650661A", "about": "“Enzyme inhibitors” (priority 1982, dated 1987)", "key": {"acid proteases": {"tested_on": "acid proteases", "settings": "cited from earlier work"}, "human renin": {"target": "T1, human renin (Homo sapiens, UniProt P00797)", "T1 sequence (P00797 67-406)": "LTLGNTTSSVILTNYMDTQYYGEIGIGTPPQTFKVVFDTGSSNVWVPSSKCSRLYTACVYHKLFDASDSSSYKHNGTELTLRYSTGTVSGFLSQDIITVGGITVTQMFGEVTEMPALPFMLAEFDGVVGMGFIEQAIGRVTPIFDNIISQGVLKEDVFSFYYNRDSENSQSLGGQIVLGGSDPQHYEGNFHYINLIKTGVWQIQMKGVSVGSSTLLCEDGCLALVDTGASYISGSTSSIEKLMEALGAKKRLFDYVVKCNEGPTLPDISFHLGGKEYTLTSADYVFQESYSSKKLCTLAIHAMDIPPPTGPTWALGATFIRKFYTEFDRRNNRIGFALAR", "assay": "renin inhibition, methods of published European specification", "assay_type": "biochemical", "excerpt": "(§1) This compound is the subject of Example 1 below."}, "baboon renin": {"tested_on": "baboon renin", "assay": "renin inhibition, baboon renin", "assay_type": "biochemical", "settings": "preliminary results, read-out: IC50 against baboon renin (preliminary results)", "excerpt": "as §1\nThe following are the fully detailed examples referred to earlier. The activity of H-176 (Example I) has already been given."}}, "note": "Where two headings read alike, the source gives them in different places. Non-standard residues stand in square brackets, D forms with d. Residues, ends and D or L forms follow the SMILES beside them. *: point of attachment. Sta = CC(C)C[C@H](N)[C@@H](O)CC(=O)O; Isovaleryl = CC(C)CC(=O)*", "data": [{"compound": "CC(C)CC(=O)N[C@H](C(=O)N[C@H](C(=O)N[C@@H](CC(C)C)[C@@H](O)CC(=O)N[C@@H](C)C(=O)N[C@@H](CC(C)C)[C@@H](O)CC(=O)O)C(C)C)C(C)C", "note": "[pepstatin, iso-valeryl-L-valyl-L-valyl-S,S,-statyl-L-alanyl-S,S-statine] (Isovaleryl-VV[Sta]A[Sta]-OH)", "values": [{"measurement": "inhibition of acid proteases (pepsin, cathepsin D, chymosin, renin)", "setting": "acid proteases", "value": "inhibits acid proteases in general"}]}, {"compound": "H-PHPFH[Sta]VIHK-OH [Example H-189]", "values": [{"measurement": "IC50", "setting": "human renin; preliminary results, read-out: IC50 against human renin (preliminary results)", "value": 9, "unit": "nM"}, {"measurement": "IC50", "setting": "baboon renin", "value": 12, "unit": "nM"}]}, {"compound": "H-HPFH[Sta]VIH-OH [Example H-176]", "values": [{"measurement": "IC50", "setting": "human renin; read-out: IC50 against human renin", "value": 16, "unit": "nM"}]}]}
